Data set [1] deals with insulin-naïve participants with T2DM. The data set is described as follows: Clinical Trial 1 (26-week, treat-to-target): glycaemic control (HbA1c, FPG), IDeg U-200 vs IGlar. The format is in vivo, human. To be noted: whole population. The source says: (§1) This phase 3a, 26-week, randomized, controlled, open-label, multinational, treat-to-target, non-inferiority trial compared the efficacy and safety of IDeg U-200 (i.e. 200 U/mL) and IGlar (100 U/mL) both administered OD in combination with metformin (met) ±DPP-4 inhibitor in insulin-naïve participants with T2DM previously treated with oral antidiabetic drugs OAD(s), who qualified for intensification of treatment. The trial was open-label because the pen devices used to administer the basal insulins were distinctively different and blinding was, therefore, impossible.
Participants who were insulin-naïve adults with T2DM for at least 6 months, HbA1, 7-10% (inclusive), BMI s 45 kg/m^2, and previously treated with metformin with or without additional OADs for at least 3 months were eligible to participate in the study.
(§2) Using the interactive voice/web response system, eligible participants were randomized 1:1 to either once-daily IDeg U-200 (IDeg 200 U/mL, 3 mL FlexTouch®, Novo Nordisk, Bagsvård, Denmark) or once-daily IGlar (Lantus® 100 U/mL, 3 mL SoloStar® Sanofi Aventis U.S. LLC) and continued metformin ±DPP-4 inhibitor treatment. Trial participants were instructed to continue the same total daily dose of metformin and DPP-4 inhibitor treatment as before the start of the trial.
(§3) Insulin degludec was administered once-daily with the main evening meal and, consistent with its product labelling, IGlar was administered once-daily (OD) at the same time each day. Either treatment was injected subcutaneously in the thigh, upper arm or abdomen. The starting dose for each was 10 U, and during the treatment period, the insulin dose was systematically titrated using a treat-to-target approach striving for a pre-breakfast self-measured plasma glucose (SMPG) level of 4.0-4.9 mmol/L (71-89 mg/dL). Both IDeg and IGlar were similarly titrated once weekly in 2 U increments. The treatment period was 26 weeks and doses were individually titrated in an effort to achieve the same glucose targets with both treatments.
The primary endpoint for this study was change in HbA1c (%) from baseline after 26 weeks of treatment. Secondary confirmatory endpoints tested were number of treatment-emergent confirmed hypoglycaemic episodes, change from baseline in central laboratory-measured fasting plasma glucose (FPG), within subject variability as measured by coefficient of variation (%), and frequency of participants achieving HbA1c<7% without hypoglycaemic episodes. The supportive secondary endpoints included 9-point SMPG profiles, frequency of participants achieving HbA1c<7%, and Health-Related Quality of Life (HRQoL; Short Form 36 [SF-36 v.2] questionnaire) scores. The safety assessments were adverse events, hypoglycaemic episodes, insulin dose, body weight, physical examination, vital signs, fundoscopy, electrocardiogram (ECG) and laboratory tests (including antibodies). Confirmed hypoglycaemic episodes were defined as episodes with a PG value of <3.1 mmol/L (56 mg/dL) and severe episodes requiring assistance.^7 Hypoglycaemic episodes occurring between 00:01 h and 05:59 h (inclusive) were classified as nocturnal.
Analyses of all efficacy endpoints were based on the full analysis set (FAS) which included all randomized participants. The safety analysis set included all participants who received at least one dose of the investigational product or the comparator. Missing values were imputed using the last observation carried forward (LOCF) method.
The primary objective of this trial was to confirm the non-inferiority of IDeg U-200 OD to IGlar OD as assessed by change in HbA1c from baseline after 26 weeks of treatment. Non-inferiority was confirmed if the upper limit of the 95% confidence interval (Cl) for the treatment difference was 50.4%. […]

Data set [2] shares this test system. To be noted: human, in vivo.
From the text: as §1, §2, §3
The primary endpoint for this study was change in HbA1c (%) from baseline after 26 weeks of treatment. Secondary confirmatory endpoints tested were number of treatment-emergent confirmed hypoglycaemic episodes, change from baseline in central laboratory-measured fasting plasma glucose (FPG), within subject variability as measured by coefficient of variation (%), and frequency of participants achieving HbA1c<7% without hypoglycaemic episodes. […]
Treatment difference in change from baseline in HbA1c after 26 weeks was analyzed using an Analysis of Variance (ANOVA) model with treatment, antidiabetic treatment at screening, sex and region (Europe, North America, or South Africa) as fixed factors, and age and baseline HbA1c as covariates. […] The number of treatment-emergent confirmed hypoglycaemic episodes was analyzed using a negative binomial regression model including treatment, antidiabetic therapy at screening, sex and region as fixed factors, and age as covariate. […]

The conditions of data set [3]: in vivo; cited from earlier work.

Turning to “NεB29-(Nα—(HOOC(CH2)14CO)-γ-Glu)des(B30)-human insulin [insulin degludec]”, in data set [1] (26 weeks), the “non-inferiority to IGlar in change in HbA1c from baseline” value was “non-inferiority”. The “estimated treatment difference (ETD) IDeg-IGlar in change in HbA1c” value in data set [1] (26 weeks, 95% CI −0.11, 0.19) is 0.04. The “ETD in FPG (IDeg vs IGlar)” value in data set [1] (26 weeks, 95% CI −0.78, −0.06) is −0.42. Besides, in data set [1] (after 26 weeks), the “Central laboratory-measured FPG decrease” value came out at 4.0 mmol/L, the “Central laboratory-measured FPG reached” value came to 5.7 mmol/L and the “FPG reduction compared with IGlar” value is recorded as “statistically significantly greater FPG reduction”. Besides, in data set [2], the “%: Percentage of subjects experiencing at least one episode” value is given as 6.1%; the “ERR IDeg/IGlar, nocturnal confirmed hypoglycaemia” value is listed as 0.64; the “estimated rate ratio (ERR) IDeg/IGlar, confirmed hypoglycaemia” value is reported as 0.86; the “rate of nocturnal confirmed hypoglycaemic episodes” value turned out to be 0.18 episodes/patient-year. In addition, in data set [3], the duration of action result is reported as “greater than 42 hours”.

(Values after US20220152160A1, “DOSING REGIMEN” (Novo Nordisk A/S, priority 2013, published 2022).)
